Measurements published in patent US20080108568A1, “COMPOUNDS FOR IMPROVING LEARNING AND MEMORY” (TGEN, priority 2006, published 2008).
Entries after “also recorded” stand apart in the source; their conditions may differ.

What was measured:
aged rats = assay: Morris water maze (reference memory); format: in vivo, rat
Experimental: The rats were also tested using the Morris water maze. The Morris water maze consists of a circular water bath with a single platform. The bath is divided into 4 quadrants and various annuli. A rat was placed in the water bath and the time and distance that the rat required to reach the platform was measured. The solving strategy used by the rat was also noted. The movement of the rat was tracked using a digital tracking system. Each rat underwent 4 trials per day, with entry into the maze varied by quadrant for each trial. The Morris water maze included 5 days of testing, with the first 4 days involving testing and day 5 involving a probe trial.
(§1) Aged animals were pre-loaded for 14 days at 10mg/kg/day (FAS LOW DOSE+PRIMING) or at 3 mg/kg/day (FAS LOW DOSE). After 14 days all animals were administered 3 mg/kg/day. Vehicle was normal saline (0.9%). The rats were subjected to the Radial Arm Maze and the Morris Water Maze described above.
Fasudil was also delivered via daily sub-cutaneous injections to aged (18-months old) rats at doses of 3 mg/kg/day (n=8) or 30 mg/kg/day (n=8). Controls included both aged and young (4-months old) rats injected daily with vehicle (normal saline). The low dose for Fasudil was based upon the previous study showing efficacy with 0.750 mg/kg/day hydroxyfasudil and the high dose was based on that reported in the literature as a commonly used therapeutic dose.

[1] = system: aged (18-months old) rats; assay: water escape radial arm maze, more difficult version of the working memory trial (7 out of 8 arms platformed); format: in vivo, rat
Experimental: (§2) This experiment included a decreased pre-loading phase, a more difficult version of the working memory trial (where 7 out of 8 arms were platformed), and an elongated version of the Morris maze (7 days plus a “probe” trial). Fasudil was delivered via daily sub-cutaneous injections to aged (18-months old) rats at doses of 3 mg/kg/day (n=8) or 10 mg/kg/day (n=8). Controls included both aged and young (4-months old) rats injected daily with vehicle (normal saline). The low dose for Fasudil was based upon the evidence in Example 3 showing efficacy and the high dose was based on that reported in the literature as a commonly used low therapeutic dose. There was a one day loading period for this experiment.

[2] = system: aged (18-months old) rats; assay: tolerability observation during daily sub-cutaneous dosing; format: in vivo, rat; conditions: 10 mg/kg/day s.c., after 7 days of drug delivery; animals switched to the low dose
Experimental: as §2

[3] = system: aged rats (18 months old); assay: water escape radial arm maze test (4 of 8 arms platformed); format: in vivo, rat
Experimental: Hydroxyfasudil was tested in vivo by administering to aged rats (18 months old) two doses of 0.75 mg/kg and 0.375 mg/kg, delivered subcutaneously each day for a period of 4-5 days before testing. During testing, hydroxyfasudil was administered in the morning of each testing day. Two control groups were used, with one group being untreated and the other group treated with the vehicle (saline). Both control groups include 9 members, with an age of 4 months.
The rats were then tested using the water escape radial arm maze test. The radial arm maze is a swim-based test without the need for food deprivation. The maze consists of 8 radial arms, with 4 of the arms having a submerged platform. […] The rat was given 180 seconds to locate a platform. If the rat located a platform, the rat was allowed 15 seconds on the platform, and was then removed. When a rat found a platform, that platform was removed prior to beginning the next trial. Each rat was subjected to 4 trials per day, with 1 trial per platform and 30 seconds between trials. Each rat was tested over a period of 12 days, with the first day consisting of training, days 2-7 considered “initial,” and days 8-12 considered “latter.”
Additional efficacy testing was performed using twenty-seven 18-month old male rats were utilized and divided randomly into three treatment groups: saline vehicle (“Aged Vehicle”), hydroxyfasudil in saline at a dose of 0.1875 mg per day (“Aged Low Dose”), and hydroxyfasudil at a dose of 0.3750 mg per day (“Aged High Dose”). Daily injections of the assigned substrate began four days prior to behavioral testing and continued throughout testing, with injections given approximately one hour before daily testing ensued. Animals were tested 4 trials per day for 12 consecutive days. Following the water radial arm maze, spatial reference memory was assessed using the Morris water maze. This testing consisted of 4 trials per day for 4 days with an additional probe trial on the final day.
Using the protocol described above for hydroxyfasudil, rats were treated with from 1 mg/kg to 2 mg/kg of fenretinide. The rats were subjected to the Radial Arm Maze and the Morris Water Maze described above.
as §1

[4] = system: “memory molecule” transcripts in the hippocampus; assay: expression profile of the entire hippocampus of hydroxyfasudil treated animals; format: in vivo; conditions: FIG. 6
Source text: The tissue source is the entire hippocampus.
After testing, the rats were terminated and the brain dissected.

[5] = rats, 1 mg/kg to 2 mg/kg, FIG. 7

O=S(=O)(c1cccc2cnccc12)N1CCCNCC1 [Fasudil, fasudil]
efficacy of the low dose (evidence in Example 3) (aged rats; 3 mg/kg/day s.c.): efficacy | reference memory performance (inches swam to locate the hidden platform), by day (aged rats; 14 days pre-loading at 10 or 3 mg/kg/day, then 3 mg/kg/day, collapsed across trials each day, FIG. 11A): improves reference memory performance | reference memory performance (inches swam to locate the hidden platform), by trial (aged rats; 14 days pre-loading at 10 or 3 mg/kg/day, then 3 mg/kg/day, collapsed by trial for all four days, FIG. 11B): improves reference memory performance | memory performance ([1]; FIG. 12 legend): improves memory performance | working memory performance ([1]; aged rats, 3 or 10 mg/kg/day s.c. (10 mg/kg/day switched to low dose after 7 days), especially trials 6 and 7, FIG. 12): significant improvement in working memory performance | trauma in dosed animals [2]: began to show similar trauma as in the previous study

CC1=C(/C=C/C(C)=C/C=C/C(C)=C/C(=O)Nc2ccc(O)cc2)C(C)(C)CCC1 [fenretinide]
working memory ([3]; 6 rats per group, FIG. 7 legend): improving working memory | memory, greater doses versus smaller doses [3, 5]: improved memory more than smaller doses | number of incorrect errors made by the rats, versus the control [3, 5]: lowered the number of incorrect errors

O=c1[nH]ccc2c(S(=O)(=O)N3CCCNCC3)cccc12 [hydroxyfasudil]
memory (working memory) ([3]; 18-month old male rats, 0.1875 mg per day and 0.3750 mg per day, daily injections from four days before testing, FIG. 16): improved memory; also recorded: improves working memory | working memory ([3]; FIG. 5 legend): improves working memory | memory ([3]; aged rats, 0.75 mg/kg and 0.375 mg/kg s.c. daily, FIGS. 3-5): improved memory | learning scores (orthogonal measures of working memory) ([3]; aged rats, 0.75 mg/kg and 0.375 mg/kg subcutaneously each day, FIGS. 3-4): improved learning scores | improvements of learning, higher doses versus smaller doses ([3]; aged rats, 0.75 mg/kg vs 0.375 mg/kg s.c. daily, FIGS. 3-4): greater improvements of learning | improvements of memory, higher doses versus smaller doses ([3]; aged rats, 0.75 mg/kg vs 0.375 mg/kg s.c. daily, FIGS. 3-5): greater improvements of memory | performance of aging rats compared with young rats ([3]; aging rats receiving the compound): perform at a level comparable to young rats | “memory molecule” transcripts in the hippocampus [4]: alteration of “memory molecule” transcripts
